Measurements published in US20250160678A1, “GRAPHENE SENSOR SYSTEMS FOR C[…] ANALYSIS” (VOCxI Health, Inc., priority 2023, published 2025).

Assay: elimination curves of cannabinoids after ingestion (FIG. 2)
Type: in vivo
Conditions: time of Test 2 (which may be two hours after cannabinoid ingestion)
Source text: Referring now to FIG. 1, a chart is shown of elimination curves of various cannabinoids. […] The relative amounts of cannabinoid metabolites (e.g., intermediate or final breakdown products of cannabinoid compounds in the body) will also vary with time after an ingestion event.
As previously referenced, the relative amounts of one cannabinoid compound to another and/or metabolites thereof will vary with time after an ingestion event because their different half-lives in the body. As such, a pattern of compounds captured with a system herein at time point that is closer to the time of ingestion will be different than a pattern of compounds captured at a later time. Referring now to FIG. 2, a chart is shown of elimination curves of various cannabinoids. […] In this example, exemplary test times are shown in the form of Test 1, Test 2, and Test 3, with each test being progressively spaced out farther away in time from the time of ingestion. […] Because of this, patterns as identified by systems herein are different at each test time. For example, at the time of Test 1 (which may be a half-hour after cannabinoid ingestion) the amount of CBN is roughly 80 to 90 percent of the amount of THC. In contrast, at the time of Test 2 (which may be two hours after cannabinoid ingestion) the amount of CBN is only about 50 percent of the amount of THC. […]

With `CCCCCc1cc(O)c2c(c1)OC(C)(C)c1ccc(C)cc1-2` [CBN, cannabinol] the “amount of CBN as percent of the amount of THC” value was “about 50%”.
